Columns and labels:
Rat recombinant TRPV4 = target: T1, Rat recombinant TRPV4 (Rattus norvegicus, UniProt Q9ERZ8); experiment: cell-based; assay type: cell-based
T1 construct: expressed in transfected cells; host or cells: HEK293 (TRPV4-HEK-293, gift from HB Bradshaw, Indiana University)

[1] = system: AEA cellular uptake in U937 cells; experiment: cells; assay type: cell-based, human; details: 10 µM
Rat recombinant TRPM8 = target: T2, Rat recombinant TRPM8 (Rattus norvegicus, UniProt Q8R455); experiment: TRP channel [Ca2+]i assay; assay type: cell-based; details: agonist
T2 construct: expressed in transfected cells; host or cells: HEK293 (TRPM8-HEK-293, gift from Mario van der Stelt)
T2 sequence (Q8R455 whole entry): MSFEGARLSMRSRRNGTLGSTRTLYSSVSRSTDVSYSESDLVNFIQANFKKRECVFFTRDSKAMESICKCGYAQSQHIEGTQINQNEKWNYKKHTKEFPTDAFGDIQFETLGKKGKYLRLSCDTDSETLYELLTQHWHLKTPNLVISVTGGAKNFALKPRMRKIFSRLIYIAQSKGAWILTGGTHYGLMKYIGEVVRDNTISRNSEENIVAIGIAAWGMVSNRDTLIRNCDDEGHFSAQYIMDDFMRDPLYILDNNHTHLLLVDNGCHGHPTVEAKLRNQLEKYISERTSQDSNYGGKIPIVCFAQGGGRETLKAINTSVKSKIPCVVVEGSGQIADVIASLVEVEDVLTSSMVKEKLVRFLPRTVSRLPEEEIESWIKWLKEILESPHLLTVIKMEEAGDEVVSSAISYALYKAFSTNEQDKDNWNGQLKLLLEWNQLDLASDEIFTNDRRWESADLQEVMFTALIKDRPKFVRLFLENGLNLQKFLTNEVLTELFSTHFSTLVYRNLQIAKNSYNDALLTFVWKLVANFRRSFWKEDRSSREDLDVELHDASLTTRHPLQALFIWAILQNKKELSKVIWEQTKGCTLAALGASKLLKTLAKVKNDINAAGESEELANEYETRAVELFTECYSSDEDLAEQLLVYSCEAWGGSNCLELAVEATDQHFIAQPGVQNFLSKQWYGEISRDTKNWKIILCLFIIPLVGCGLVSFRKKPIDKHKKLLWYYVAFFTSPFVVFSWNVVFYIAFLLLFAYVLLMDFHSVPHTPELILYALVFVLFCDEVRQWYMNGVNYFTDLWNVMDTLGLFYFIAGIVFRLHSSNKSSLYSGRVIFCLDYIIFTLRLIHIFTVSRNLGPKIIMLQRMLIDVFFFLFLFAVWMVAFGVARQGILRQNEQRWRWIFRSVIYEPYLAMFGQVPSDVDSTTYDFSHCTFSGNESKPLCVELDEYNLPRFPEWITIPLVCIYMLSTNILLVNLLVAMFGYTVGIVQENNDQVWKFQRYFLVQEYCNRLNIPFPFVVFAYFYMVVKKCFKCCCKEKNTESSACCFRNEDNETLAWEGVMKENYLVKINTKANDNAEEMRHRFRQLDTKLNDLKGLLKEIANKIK

Rat recombinant TRPV3 = target: T3, Rat recombinant TRPV3 (Rattus norvegicus, UniProt Q4QYD9); experiment: cell-based; assay type: cell-based
T3 construct: expressed in transfected cells; host or cells: HEK293 (TRPV3-HEK-293, gift from HB Bradshaw, Indiana University)
T3 sequence (Q4QYD9 1-791): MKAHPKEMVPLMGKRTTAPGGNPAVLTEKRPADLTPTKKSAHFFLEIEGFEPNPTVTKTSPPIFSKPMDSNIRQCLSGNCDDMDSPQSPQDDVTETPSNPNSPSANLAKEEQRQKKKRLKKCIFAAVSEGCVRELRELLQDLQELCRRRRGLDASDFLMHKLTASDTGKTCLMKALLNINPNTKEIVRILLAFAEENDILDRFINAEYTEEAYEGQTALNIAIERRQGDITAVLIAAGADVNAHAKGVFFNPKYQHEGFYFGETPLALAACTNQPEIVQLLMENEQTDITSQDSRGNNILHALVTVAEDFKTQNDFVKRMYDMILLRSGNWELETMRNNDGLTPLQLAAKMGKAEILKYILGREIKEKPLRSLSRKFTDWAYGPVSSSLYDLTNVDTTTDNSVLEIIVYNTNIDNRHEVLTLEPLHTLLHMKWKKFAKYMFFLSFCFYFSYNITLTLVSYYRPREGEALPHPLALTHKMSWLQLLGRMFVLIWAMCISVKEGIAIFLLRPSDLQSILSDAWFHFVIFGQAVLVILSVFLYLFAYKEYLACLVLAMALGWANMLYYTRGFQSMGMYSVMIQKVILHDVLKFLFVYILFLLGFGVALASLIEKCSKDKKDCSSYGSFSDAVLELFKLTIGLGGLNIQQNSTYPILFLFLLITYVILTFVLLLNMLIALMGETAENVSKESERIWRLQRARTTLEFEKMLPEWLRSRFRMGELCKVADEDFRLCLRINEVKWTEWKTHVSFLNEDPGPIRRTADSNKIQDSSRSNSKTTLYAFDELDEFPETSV

hDAGL-α = target: T4, hDAGL-α (Homo sapiens, UniProt Q9Y4D2); experiment: Biochemical DAGLα activity assay; details: 10 µM
T4 construct: expressed in transfected cells; host or cells: HEK293T (transient), membrane preparation
T4 sequence (Q9Y4D2 1-1042): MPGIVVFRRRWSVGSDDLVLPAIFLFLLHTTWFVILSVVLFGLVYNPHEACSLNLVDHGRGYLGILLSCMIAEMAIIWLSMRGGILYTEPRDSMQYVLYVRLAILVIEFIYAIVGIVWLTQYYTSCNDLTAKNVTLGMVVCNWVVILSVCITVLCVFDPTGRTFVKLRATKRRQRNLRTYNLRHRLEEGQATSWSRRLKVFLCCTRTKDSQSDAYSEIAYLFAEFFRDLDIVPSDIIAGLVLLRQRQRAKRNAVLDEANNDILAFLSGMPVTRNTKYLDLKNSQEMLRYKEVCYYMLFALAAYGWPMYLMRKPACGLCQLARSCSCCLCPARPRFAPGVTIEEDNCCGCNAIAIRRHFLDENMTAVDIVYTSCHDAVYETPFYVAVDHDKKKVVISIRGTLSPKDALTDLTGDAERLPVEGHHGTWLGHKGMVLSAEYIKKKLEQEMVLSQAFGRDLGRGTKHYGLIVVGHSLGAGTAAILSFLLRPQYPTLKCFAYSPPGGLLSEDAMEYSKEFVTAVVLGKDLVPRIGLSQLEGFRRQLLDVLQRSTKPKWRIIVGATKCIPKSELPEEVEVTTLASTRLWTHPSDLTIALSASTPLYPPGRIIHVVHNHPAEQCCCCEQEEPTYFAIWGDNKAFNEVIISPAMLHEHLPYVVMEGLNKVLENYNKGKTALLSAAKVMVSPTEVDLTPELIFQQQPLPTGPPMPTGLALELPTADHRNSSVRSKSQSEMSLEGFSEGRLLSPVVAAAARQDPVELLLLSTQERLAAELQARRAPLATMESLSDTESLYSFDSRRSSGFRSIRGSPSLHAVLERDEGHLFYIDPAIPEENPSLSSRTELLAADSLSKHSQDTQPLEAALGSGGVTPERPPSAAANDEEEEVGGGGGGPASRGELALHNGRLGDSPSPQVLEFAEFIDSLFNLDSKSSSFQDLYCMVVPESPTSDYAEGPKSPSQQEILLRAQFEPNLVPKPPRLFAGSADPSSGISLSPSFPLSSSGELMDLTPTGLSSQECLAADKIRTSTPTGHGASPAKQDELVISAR
Procedure: (§1) Cell culture and membrane preparation were performed as previously described. HEK293T cells (source: Dutch Cancer Institute) were grown in DMEM with stable glutamine and phenolred (PAA), 10% New Born Calf serum, penicillin and streptomycin. Cells were passaged every 2–3 days by resuspending in medium and seeding them to appropriate confluence. Membranes were prepared from transiently transfected HEK293T cells. One day prior to transfection 10^7 cells were seeded in a 15 cm petri dish. Cells were transfected by the addition of a 3:1 mixture of polyethyleneimine (60 μg) and plasmid DNA (20 μg) in 2 ml serum-free medium. The medium was refreshed after 24 h, and after 72 h the cells were harvested by suspending them in 20 ml medium. The suspension was centrifuged for 10 min at 1000, rpm, and the supernatant was removed. The cell pellet was stored at −80 °C until use. Cell pellets were thawed on ice and suspended in lysis buffer A (20 mM HEPES, 2 mM DTT, 0.25 M sucrose, 1 mM MgCl2, […] Benzonase). The suspension was homogenized by polytrone (3 × 7 s) and incubated for 30 min on ice. The suspension was subjected to ultracentrifugation (100,000 × g, 30 min, 4 °C, Beckman Coulter, Type Ti70 rotor) to yield the cytosolic fraction in the supernatant and the membrane fraction as a pellet. The pellet was resuspended in lysis buffer B (20 mM HEPES, 2 mM DTT). The protein concentration was determined with Quick Start Bradford assay (Biorad). The protein fractions were diluted to a total protein concentration of 1 mg ml^−1 and stored in small aliquots at −80 °C until use.
hDAGL-α activity was measured by the extent of the hydrolysis of para-nitrophenylbutyrate (PNP-butyrate) by membrane preparations from HEK293T cells (source: Dutch Cancer Institute) transiently transfected with hDAGL-α (ref. [43]). Percentage of inhibition of reference ligands was determined in comparison with an untreated control. Reactions were performed in 50 mM pH 7.2 HEPES buffer with 0.05 μg μl^−1 final protein concentration hDAGL-α transfected protein.

MAGL = target: T5, MAGL (Homo sapiens, UniProt Q99685); experiment: Biochemical MAGL activity assay; details: 10 µM
T5 construct: expressed in transfected cells; host or cells: HEK293T (transient), membrane preparation
T5 sequence (Q99685 1-303): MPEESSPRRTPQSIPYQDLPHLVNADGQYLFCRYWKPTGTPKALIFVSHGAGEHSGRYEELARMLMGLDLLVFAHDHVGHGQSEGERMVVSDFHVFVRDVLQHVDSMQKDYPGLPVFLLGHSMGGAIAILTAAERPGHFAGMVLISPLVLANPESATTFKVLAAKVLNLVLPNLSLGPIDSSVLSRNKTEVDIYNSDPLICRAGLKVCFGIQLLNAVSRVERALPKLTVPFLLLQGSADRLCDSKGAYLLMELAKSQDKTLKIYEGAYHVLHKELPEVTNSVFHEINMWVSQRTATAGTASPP
Procedure: as §1
Percentage of inhibition of reference ligands was determined in comparison with an untreated control. […] Fluorescence was measured in 5 min intervals for 60 min.

human NAPE-PLD = target: T6, human NAPE-PLD (Homo sapiens, UniProt Q6IQ20); experiment: NAPE-PLD inhibition; assay type: biochemical; details: 10 µM
T6 construct: Full length human cDNA NAPE-PLD was obtained from Natsuo Ueda; expressed in transfected cells; host or cells: HEK293T (transient), membrane fraction
T6 sequence (Q6IQ20 whole entry): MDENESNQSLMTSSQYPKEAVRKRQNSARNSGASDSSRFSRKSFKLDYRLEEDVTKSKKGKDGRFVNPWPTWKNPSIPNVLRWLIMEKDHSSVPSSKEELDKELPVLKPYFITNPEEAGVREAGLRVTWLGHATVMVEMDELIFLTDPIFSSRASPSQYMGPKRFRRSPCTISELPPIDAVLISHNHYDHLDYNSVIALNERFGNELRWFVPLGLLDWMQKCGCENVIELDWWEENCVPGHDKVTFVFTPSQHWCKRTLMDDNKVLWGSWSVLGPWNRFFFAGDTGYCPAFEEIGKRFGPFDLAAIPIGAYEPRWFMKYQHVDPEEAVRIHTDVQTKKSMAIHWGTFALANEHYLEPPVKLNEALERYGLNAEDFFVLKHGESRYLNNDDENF
Procedure: Full length human cDNA NAPE-PLD was obtained from Natsuo Ueda[58] and cloned into mammalian expression vector pcDNA3.1, containing a C-terminal Flag-tag and genes for ampicillin and neomycin resistance. All plasmids were grown in XL-10 Z-competent cells and prepped (Maxi Prep, Qiagen). Sequence analysis for the confirmation of the sequences was performed at the Leiden Genome Technology Centre.
HEK293T cells (source: Dutch Cancer Institute) were cultured at 37 °C and 7% CO2 in DMEM with glutamax, penicillin (100 μg ml^−1), streptomycin (100 μg ml^−1) and 10% New Born Calf Serum iron supplemented (Hyclone SH30072.03). Cells were passaged twice a week to appropriate confluence. Twenty-four hours before transfection 10^7 cells were seeded on a 15 cm dish. Two hours before transfection, the medium was refreshed. Transfection is performed with PEI in a ratio of 3:1 with human NAPE-PLD or Mock pcDNA3.1Neo, 20 μg per dish. Medium is refreshed after 24 h and cells are harvested after 72 h. Cell suspensions are centrifuged at 1,000g for 10 min, supernatant removed and pellets frozen at −80 °C until further use.
Cell pellets are re-suspended in lysis buffer 1: 20 mM Hepes, 2 mM DTT, 0.25 M sucrose, 1 mM MgCl2, 2.5 U ml^−1 benzonase and incubated 30 min on ice. The cytosolic fraction (supernatant) is separated from the membranes by ultra-centrifugation (32,000 rpm for 30 min 100,000g). The pellet is resuspended in buffer 2: 20 mM Hepes, 2 mM DTT (membrane fraction). All samples are stored at −80 °C. Enzyme concentrations are determined using a Bradford assay.
The membrane protein fraction from transient overexpression of NAPE-PLD in HEK293T cells was diluted to 0.4 mg ml^−1 in assay buffer: 50 mM Tris-HCl (pH 7.5), 0.02% Triton X-100, 150 mM NaCl (ref. [60]). […] Relevant concentrations of compounds are prepared in DMSO. The assay is performed in a dark Greiner 96-well plate, end volume 100 μl. The compound or DMSO is incubated with membrane protein lysate (final concentration 0.04 mg ml^−1) for 30 min at 37 °C. A sample without membrane protein lysate is incorporated for background subtraction. Then, substrate is added (final concentration 1 μM) and the measurement is started immediately on a TECAN infinite M1000 pro at 37 °C (excitation 485 nm, emission 535 nm), scanning every 2 min for 1 h.

Rat recombinant TRPV2 = target: T7, Rat recombinant TRPV2 (Rattus norvegicus, UniProt Q9WUD2); experiment: cell-based; assay type: cell-based
T7 construct: expressed in transfected cells; host or cells: HEK293 (plasmid a gift from HB Bradshaw, Indiana University)
T7 sequence (Q9WUD2 1-761): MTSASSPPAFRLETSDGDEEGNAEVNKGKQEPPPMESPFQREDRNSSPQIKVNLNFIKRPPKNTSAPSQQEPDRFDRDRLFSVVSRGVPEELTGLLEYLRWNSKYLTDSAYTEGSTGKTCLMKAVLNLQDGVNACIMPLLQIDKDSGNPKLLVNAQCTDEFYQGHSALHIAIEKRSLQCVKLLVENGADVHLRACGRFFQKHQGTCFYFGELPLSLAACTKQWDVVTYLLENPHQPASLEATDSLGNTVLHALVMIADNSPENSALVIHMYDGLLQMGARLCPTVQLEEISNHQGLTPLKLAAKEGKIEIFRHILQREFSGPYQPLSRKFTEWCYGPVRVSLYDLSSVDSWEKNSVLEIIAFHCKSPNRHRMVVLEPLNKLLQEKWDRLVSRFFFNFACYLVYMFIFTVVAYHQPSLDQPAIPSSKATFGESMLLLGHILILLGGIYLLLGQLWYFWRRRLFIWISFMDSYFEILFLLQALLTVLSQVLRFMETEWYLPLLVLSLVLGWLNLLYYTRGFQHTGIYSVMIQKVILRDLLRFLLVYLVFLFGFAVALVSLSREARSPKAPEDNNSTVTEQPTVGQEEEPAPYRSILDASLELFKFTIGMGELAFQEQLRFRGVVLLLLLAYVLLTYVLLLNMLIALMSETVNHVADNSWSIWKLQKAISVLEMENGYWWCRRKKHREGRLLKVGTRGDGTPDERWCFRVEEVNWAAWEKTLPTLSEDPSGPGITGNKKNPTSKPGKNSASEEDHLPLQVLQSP

T1 sequence (Q9ERZ8 whole entry): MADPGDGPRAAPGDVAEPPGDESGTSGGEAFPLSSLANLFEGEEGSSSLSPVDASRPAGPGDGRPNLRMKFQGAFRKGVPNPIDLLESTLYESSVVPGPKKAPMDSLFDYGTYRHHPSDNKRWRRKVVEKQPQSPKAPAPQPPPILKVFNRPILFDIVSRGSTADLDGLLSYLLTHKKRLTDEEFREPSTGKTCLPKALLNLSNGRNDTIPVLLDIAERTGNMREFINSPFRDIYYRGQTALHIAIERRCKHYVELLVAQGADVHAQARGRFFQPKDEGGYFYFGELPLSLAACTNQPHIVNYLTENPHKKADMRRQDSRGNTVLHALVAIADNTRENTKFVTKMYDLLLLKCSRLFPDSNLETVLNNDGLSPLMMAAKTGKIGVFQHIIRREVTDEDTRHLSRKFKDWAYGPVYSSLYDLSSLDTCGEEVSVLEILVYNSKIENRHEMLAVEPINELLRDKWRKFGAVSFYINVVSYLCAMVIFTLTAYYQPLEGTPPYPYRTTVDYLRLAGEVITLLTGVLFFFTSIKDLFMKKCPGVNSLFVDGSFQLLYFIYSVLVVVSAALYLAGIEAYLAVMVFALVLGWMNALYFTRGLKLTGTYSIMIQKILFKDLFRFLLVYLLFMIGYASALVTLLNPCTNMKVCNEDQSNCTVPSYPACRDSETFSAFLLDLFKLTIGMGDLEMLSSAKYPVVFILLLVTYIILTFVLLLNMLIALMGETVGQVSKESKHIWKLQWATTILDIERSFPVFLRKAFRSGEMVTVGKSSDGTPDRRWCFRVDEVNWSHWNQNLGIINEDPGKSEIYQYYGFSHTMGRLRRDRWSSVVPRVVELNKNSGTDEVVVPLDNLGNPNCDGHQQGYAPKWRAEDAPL

Molecule: CCCCCCCCCC(=O)O[C@@H]1[C@@H](C)[C@@]2(O)[C@@H](C=C(CO)C[C@@]3(O)C(=O)C(C)=C[C@@H]23)[C@@H]2C(C)(C)[C@]12OC(=O)CCCCCCCCC [4α-PDD, 4α-phorbol 12,13-didecanoate]
- TRPV4 Efficacy (% ionomycin 4μM) (Rat recombinant TRPV4): 51.9±1.7%
- EC50 (Rat recombinant TRPV4; read-out: TRPV4 Potency EC50): 460 ± 70 nM

Molecule: CCCCCCCC/C=C\CCCCCCCC(=O)N[C@@H](CO)Cc1ccc(O)cc1 [OMDM-2]
- AEA cellular uptake inhibition, positive controls [1]: 59.7±6.6%

Molecule: CCCCC/C=C\C/C=C\C/C=C\C/C=C\CCCC(=O)NCc1ccoc1 [UCM707]
- AEA cellular uptake inhibition, positive controls [1]: 71.5±8.0%

Molecule: O=C1NC(c2cccc([N+](=O)[O-])c2)=CCN1c1ccccc1O [icilin]
- TRPM8 efficacy (Rat recombinant TRPM8): 75.1±1.1
- EC50 (Rat recombinant TRPM8; read-out: TRPM8 potency EC50): 110 ± 10 nM

Molecule: Cc1ccc(C(C)C)c(O)c1 [thymol]
- TRPV3 Efficacy (% ionomycin 4μM) (Rat recombinant TRPV3): 34.7±0.2%
- EC50 (Rat recombinant TRPV3; read-out: TRPV3 Potency EC50): 84100 ± 1600 nM

Molecule: CCCCCc1cc(O)c2c(c1)OC(C)(C)[C@@H]1CCC(C)=C[C@@H]21 [Δ9-THC, Δ^9-tetrahydrocannabinol]
- DAGL % inhibition at 10 µM ± SD (hDAGL-α): -9 ± 12%
- MAGL % inhibition at 10 µM ± SD (MAGL): 7 ± 17%
- NAPE-PLD % inhibition at 10 µM ± SD (human NAPE-PLD): 0 ± 12%

Molecule: lysophosphatidylcholine [LPC]
- TRPV2 Efficacy (% ionomycin 4μM) (Rat recombinant TRPV2): 91.7±0.5%
- EC50 (Rat recombinant TRPV2; read-out: TRPV2 Potency EC50): 3400 ± 20 nM

— publication PMC5216056 (Nature Communications, 2017)
